# What was measured:
# [1] = tested on: Staphylococcus aureus MSSA; assay: Minimum inhibitory concentration (MIC) in vitro, agar dilution method; format: cell-based; conditions: hydrate
# In short: (§1)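 Agar dilution MIC per CLSI/NCCLS method against clinical isolates collected in Sichuan and Beijing, 2007-2008. Compounds dissolved in DMSO, diluted in sterile water; vancomycin and linezolid as controls. Per-strain MICs reported alongside MIC50, MIC90 and MIC range.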
# S. epidermidis MSSE = assay: as above; format: cell-based; conditions: hydrate
# In short: as §1
# S. epidermidis MRSE = assay: as above; format: cell-based; conditions: hydrate
# In short: as §1
# E. feacalis = assay: as above; format: cell-based; conditions: hydrate
# In short: as §1
# [2] = tested on: Staphylococcus aureus MRSA; assay: as above; format: cell-based; conditions: hydrate
# In short: as §1
# E. feacium = assay: as above; format: cell-based; conditions: hydrate
# In short: as §1
# [3] = Solubility in different solvents according to Chinese Pharmacopeia (2005 edition); format: physicochemical; conditions: for Result: at the given solute:solvent ratio
# Procedure: The solubility of the (S)—[N-3-(3′-fluoro-4′-(4″-phenylpiperazinyl))phenyl-2-oxo-5-oxazolelidinyl]methylacetamide hydrates was tested with different solvents, and the test results are shown in Tables 15-19. The solubility was measured according to Chinese Pharmacopeia (2005 edition).
# Staphylococcus aureus = assay: Minimum inhibitory concentration (MIC) in vitro, agar dilution method, quality control strain; format: cell-based; conditions: strain S. AT C C25923 (Table 7 No. 1); hydrate
# In short: as §1
# [4] = S. MSSA (11 strains), clinically isolated
# [5] = S. ep MSSE (10 strains), clinically isolated
# [6] = S. ep MRSE (10 strains), clinically isolated
# [7] = E. feacalis (5 strains), clinically isolated
# [8] = S. MRSA (10 strains), clinically isolated
# [9] = E. feacium (5 strains), clinically isolated
smiles,measurement,setting,value
"CC(=O)NC[C@H]1CN(c2ccc(N3CCN(c4ccccc4)CC3)c(F)c2)C(=O)O1 [3/4 hydrate, (S)—[N-3-(3′-fluoro-4′-(4″-phenylpiperazinyl))phenyl-2-oxo-5-oxazolidinyl]methyl acetamide 3/4 hydrate]",MIC50,[1]; [4],1 µg/mL
same,MIC90,[1]; [4],1 µg/mL
same,MICrange,[1]; [4],0.5 to 1 µg/mL
same,MIC,[1]; strain S. MSSA 123 (Table 7 No. 3),1 µg/mL
same,MIC,[1]; strain S. MSSA 187 (Table 7 No. 7),1 µg/mL
same,MIC,[1]; strain S. MSSA 195 (Table 7 No. 6),1 µg/mL
same,MIC,[1]; strain S. MSSA 195 (Table 7 No. 12),1 µg/mL
same,MIC,[1]; strain S. MSSA 201 (Table 7 No. 11),0.5 µg/mL
same,MIC,[1]; strain S. MSSA 232 (Table 7 No. 2),1 µg/mL
same,MIC,[1]; strain S. MSSA 275 (Table 7 No. 10),0.5 µg/mL
same,MIC,[1]; strain S. MSSA 466 (Table 7 No. 8),0.5 µg/mL
same,MIC,[1]; strain S. MSSA 519 (Table 7 No. 9),1 µg/mL
same,MIC,[1]; strain S. MSSA 520 (Table 7 No. 4),1 µg/mL
same,MIC,[1]; strain S. MSSA 580 (Table 7 No. 5),1 µg/mL
same,MIC50,S. epidermidis MSSE; [5],0.5 µg/mL
same,MIC90,S. epidermidis MSSE; [5],1 µg/mL
same,MICrange,S. epidermidis MSSE; [5],0.5 to 1 µg/mL
same,MIC,S. epidermidis MSSE; strain S. ep MSSE87 (Table 7 No. 23),0.5 µg/mL
same,MIC,S. epidermidis MSSE; strain S. ep MSSE88 (Table 8 No. 5),1 µg/mL
same,MIC,S. epidermidis MSSE; strain S. ep MSSE113 (Table 7 No. 24),0.5 µg/mL
same,MIC,S. epidermidis MSSE; strain S. ep MSSE116 (Table 7 No. 25),0.5 µg/mL
same,MIC,S. epidermidis MSSE; strain S. ep MSSE118 (Table 8 No. 2),0.5 µg/mL
same,MIC,S. epidermidis MSSE; strain S. ep MSSE119 (Table 7 No. 27),1 µg/mL
same,MIC,S. epidermidis MSSE; strain S. ep MSSE137 (Table 8 No. 4),1 µg/mL
same,MIC,S. epidermidis MSSE; strain S. ep MSSE140 (Table 8 No. 3),0.5 µg/mL
same,MIC,S. epidermidis MSSE; strain S. ep MSSE142 (Table 7 No. 26),1 µg/mL
same,MIC,S. epidermidis MSSE; strain S. ep MSSE153 (Table 8 No. 1),1 µg/mL
same,MIC50,S. epidermidis MRSE; [6],1 µg/mL
same,MIC90,S. epidermidis MRSE; [6],1 µg/mL
same,MICrange,S. epidermidis MRSE; [6],1 µg/mL
same,MIC,S. epidermidis MRSE; strain S. ep MRSE4 (Table 8 No. 9),1 µg/mL
same,MIC,S. epidermidis MRSE; strain S. ep MRSE20 (Table 8 No. 6),1 µg/mL
same,MIC,S. epidermidis MRSE; strain S. ep MRSE87 (Table 8 No. 13),1 µg/mL
same,MIC,S. epidermidis MRSE; strain S. ep MRSE90 (Table 8 No. 10),1 µg/mL
same,MIC,S. epidermidis MRSE; strain S. ep MRSE101 (Table 8 No. 7),1 µg/mL
same,MIC,S. epidermidis MRSE; strain S. ep MRSE105 (Table 8 No. 11),1 µg/mL
same,MIC,S. epidermidis MRSE; strain S. ep MRSE140 (Table 8 No. 14),1 µg/mL
same,MIC,S. epidermidis MRSE; strain S. ep MRSE142 (Table 8 No. 12),1 µg/mL
same,MIC,S. epidermidis MRSE; strain S. ep MRSE210 (Table 8 No. 15),1 µg/mL
same,MIC,S. epidermidis MRSE; strain S. ep MRSE211 (Table 8 No. 8),1 µg/mL
same,MIC50,E. feacalis; [7],2 µg/mL
same,MIC90,E. feacalis; [7],4 µg/mL
same,MICrange,E. feacalis; [7],1 to 4 µg/mL
same,MIC,E. feacalis; strain Efa 54 (Table 8 No. 20),2 µg/mL
same,MIC,E. feacalis; strain Efa 116 (Table 8 No. 16),2 µg/mL
same,MIC,E. feacalis; strain Efa 907 (Table 8 No. 19),1 µg/mL
same,MIC,E. feacalis; strain Efa 3006 (Table 8 No. 18),2 µg/mL
same,MIC,E. feacalis; strain Efa 33748 (Table 8 No. 17),4 µg/mL
same,MIC50,[2]; [8],1 µg/mL
same,MIC90,[2]; [8],1 µg/mL
same,MICrange,[2]; [8],0.5 to 1 µg/mL
same,MIC,[2]; strain S. MRSA 29 (Table 7 No. 15),0.5 µg/mL
same,MIC,[2]; strain S. MRSA 101 (Table 7 No. 14),1 µg/mL
same,MIC,[2]; strain S. MRSA 201 (Table 7 No. 13),1 µg/mL
same,MIC,[2]; strain S. MRSA B27 (Table 7 No. 21),0.5 µg/mL
same,MIC,[2]; strain S. MRSA B105 (Table 7 No. 17),1 µg/mL
same,MIC,[2]; strain S. MRSA B143 (Table 7 No. 19),1 µg/mL
same,MIC,[2]; strain S. MRSA B151 (Table 7 No. 20),1 µg/mL
same,MIC,[2]; strain S. MRSA B164 (Table 7 No. 16),1 µg/mL
same,MIC,[2]; strain S. MRSA B199 (Table 7 No. 22),0.5 µg/mL
same,MIC,[2]; strain S. MRSA B617 (Table 7 No. 18),1 µg/mL
same,MIC50,E. feacium; [9],2 µg/mL
same,MIC90,E. feacium; [9],4 µg/mL
same,MICrange,E. feacium; [9],1 to 4 µg/mL
same,MIC,E. feacium; strain Efm 98 (Table 8 No. 21),2 µg/mL
same,MIC,E. feacium; strain Efm 171 (Table 8 No. 25),2 µg/mL
same,MIC,E. feacium; strain Efm 197 (Table 8 No. 22),1 µg/mL
same,MIC,E. feacium; strain Efm N3 (Table 8 No. 23),4 µg/mL
same,MIC,E. feacium; strain Efm N4 (Table 8 No. 24),4 µg/mL
same,Solubility compared with the anhydride,[3]; different solvents,sometimes more soluble than the anhydride
same,Result,[3]; solvent 0.1N Hydrochloric acid,Dissolved
same,Result,[3]; solvent 0.1N Sodium hydroxide,Insoluble
same,Result,[3]; solvent Acetonitrile,Dissolved
same,Result,[3]; solvent Ethanol,Dissolved
same,Result,[3]; solvent Methanol,Dissolved
same,Result,"[3]; solvent Water, listed as ¾ hydrate, hydrate",Dissolved
same,MIC,Staphylococcus aureus,1 µg/mL
